According to ChEMBL document CHEMBL4806963, “Antagonistic peptides for frizzled-1 and frizzled-2” (2013):
Calls of active or inactive are those of the source. The rule behind the calls is not given here. Where a SMILES comes first, the peptide text is derived from it.

How the values were obtained:
[1] = molecular target: Frizzled-2 (Homo sapiens) (UniProt Q14332); assay: Antagonist activity at Wnt3a-stimulated frizzled-2 (unknown origin) expressed in human HEK293superTOP flash cells incubated for 24 hrs by luciferase reporter gene assay; type: functional, cell-based; details: HEK293, filed as antagonist
Chain of Frizzled-2 (Homo sapiens) (Q14332 24-565 limits assumed): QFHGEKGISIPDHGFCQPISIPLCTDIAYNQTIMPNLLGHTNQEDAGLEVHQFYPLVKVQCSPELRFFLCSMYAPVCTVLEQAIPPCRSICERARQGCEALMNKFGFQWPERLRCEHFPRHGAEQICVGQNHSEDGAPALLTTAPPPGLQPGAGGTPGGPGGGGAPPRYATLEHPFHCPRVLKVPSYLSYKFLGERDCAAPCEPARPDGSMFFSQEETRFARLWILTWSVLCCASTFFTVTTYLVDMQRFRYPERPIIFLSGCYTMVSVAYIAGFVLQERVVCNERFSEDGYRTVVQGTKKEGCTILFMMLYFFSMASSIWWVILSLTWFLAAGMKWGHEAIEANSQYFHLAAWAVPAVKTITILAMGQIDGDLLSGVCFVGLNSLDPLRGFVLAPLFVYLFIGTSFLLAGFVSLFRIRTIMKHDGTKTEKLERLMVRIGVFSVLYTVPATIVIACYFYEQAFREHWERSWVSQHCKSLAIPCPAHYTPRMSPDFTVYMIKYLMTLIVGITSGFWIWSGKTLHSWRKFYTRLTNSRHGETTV

[2] = molecular target: Frizzled-2 (Homo sapiens) (UniProt Q14332); assay: Antagonist activity at frizzled-2 (unknown origin) expressed in human HEK293superTOP flash cells incubated for 24 hrs by luciferase reporter gene assay; type: functional, cell-based; details: HEK293
[3] = molecular target: Frizzled-1 (Homo sapiens) (UniProt Q9UP38); assay: Antagonist activity at frizzled-1 (unknown origin) expressed in rat C-FIT cells assessed as inhibition of Wnt3a-stimulated blockade of migration at 10 nM incubated for 48 hrs and measured for 24 hrs following the scratch by scratch wound healing assay; type: functional, cell-based; details: filed as antagonist, time 72.0 hrs
Chain of Frizzled-1 (Homo sapiens) (Q9UP38 70-647 limits assumed): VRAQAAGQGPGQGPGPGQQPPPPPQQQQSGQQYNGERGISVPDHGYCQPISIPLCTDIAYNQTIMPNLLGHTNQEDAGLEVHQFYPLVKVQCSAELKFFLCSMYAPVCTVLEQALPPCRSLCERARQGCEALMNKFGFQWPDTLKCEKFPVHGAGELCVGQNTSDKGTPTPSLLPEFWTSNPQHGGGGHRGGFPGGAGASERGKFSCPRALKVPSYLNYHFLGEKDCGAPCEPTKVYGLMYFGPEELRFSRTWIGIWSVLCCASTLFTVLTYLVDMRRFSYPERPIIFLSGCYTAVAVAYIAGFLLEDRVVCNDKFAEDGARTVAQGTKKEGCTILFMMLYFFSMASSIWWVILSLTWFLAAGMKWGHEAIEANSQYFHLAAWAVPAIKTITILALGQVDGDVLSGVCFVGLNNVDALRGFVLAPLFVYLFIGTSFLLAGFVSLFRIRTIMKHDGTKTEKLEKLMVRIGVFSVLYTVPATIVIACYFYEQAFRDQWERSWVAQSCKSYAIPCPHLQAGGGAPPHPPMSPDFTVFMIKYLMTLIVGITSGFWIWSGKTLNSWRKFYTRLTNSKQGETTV

[4] = molecular target: Frizzled-2 (Homo sapiens) (UniProt Q14332); assay: Antagonist activity at frizzled-2 (unknown origin) expressed in rat C-FIT cells assessed as inhibition of Wnt3a-stimulated blockade of migration at 10 nM incubated for 48 hrs and measured for 24 hrs following the scratch by scratch wound healing assay; type: functional, cell-based; details: filed as antagonist, time 72.0 hrs
[5] = molecular target: Frizzled-1 (Rattus norvegicus) (UniProt Q08463); assay: Antagonist activity at rat frizzled-1 expressed in rat C-FIT cells assessed as inhibition of Wnt5a-stimulated blockade of migration at 10 nM incubated for 48 hrs and measured for 24 hrs following the scratch by scratch wound healing assay; type: cell-based; details: filed as antagonist, time 72.0 hrs
Chain of Frizzled-1 (Rattus norvegicus) (Q08463 whole entry): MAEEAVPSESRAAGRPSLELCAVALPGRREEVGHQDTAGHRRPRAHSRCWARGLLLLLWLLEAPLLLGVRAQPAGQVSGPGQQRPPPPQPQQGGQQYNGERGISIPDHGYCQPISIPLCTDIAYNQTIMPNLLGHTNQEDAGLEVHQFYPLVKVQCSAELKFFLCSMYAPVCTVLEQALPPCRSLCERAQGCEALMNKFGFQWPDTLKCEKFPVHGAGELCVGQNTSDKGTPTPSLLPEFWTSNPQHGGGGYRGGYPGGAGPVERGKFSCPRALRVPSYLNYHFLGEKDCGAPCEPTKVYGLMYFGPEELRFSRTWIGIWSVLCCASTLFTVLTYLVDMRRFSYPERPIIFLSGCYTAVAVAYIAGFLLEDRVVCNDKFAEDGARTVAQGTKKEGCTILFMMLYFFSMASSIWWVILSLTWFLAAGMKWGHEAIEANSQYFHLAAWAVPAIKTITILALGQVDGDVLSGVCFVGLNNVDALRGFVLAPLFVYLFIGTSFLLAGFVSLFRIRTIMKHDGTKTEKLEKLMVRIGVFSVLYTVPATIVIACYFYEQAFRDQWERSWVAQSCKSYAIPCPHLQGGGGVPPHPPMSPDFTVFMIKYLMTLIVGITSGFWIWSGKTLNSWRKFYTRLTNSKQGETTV

[6] = molecular target: Frizzled-1 (Rattus norvegicus) (UniProt Q08463); assay: Antagonist activity at Wnt3a-stimulated rat frizzled-1 expressed in CHO cells incubated for 24 hrs by luciferase reporter gene assay relative to control; type: cell-based; details: filed as antagonist, concentration not given here
[7] = molecular target: Frizzled-2 (Rattus norvegicus) (UniProt Q08464); assay: Agonist activity at rat frizzled-2 expressed in CHO cells by luciferase reporter gene assay; type: cell-based
Chain of Frizzled-2 (Rattus norvegicus) (Q08464 29-570 limits assumed): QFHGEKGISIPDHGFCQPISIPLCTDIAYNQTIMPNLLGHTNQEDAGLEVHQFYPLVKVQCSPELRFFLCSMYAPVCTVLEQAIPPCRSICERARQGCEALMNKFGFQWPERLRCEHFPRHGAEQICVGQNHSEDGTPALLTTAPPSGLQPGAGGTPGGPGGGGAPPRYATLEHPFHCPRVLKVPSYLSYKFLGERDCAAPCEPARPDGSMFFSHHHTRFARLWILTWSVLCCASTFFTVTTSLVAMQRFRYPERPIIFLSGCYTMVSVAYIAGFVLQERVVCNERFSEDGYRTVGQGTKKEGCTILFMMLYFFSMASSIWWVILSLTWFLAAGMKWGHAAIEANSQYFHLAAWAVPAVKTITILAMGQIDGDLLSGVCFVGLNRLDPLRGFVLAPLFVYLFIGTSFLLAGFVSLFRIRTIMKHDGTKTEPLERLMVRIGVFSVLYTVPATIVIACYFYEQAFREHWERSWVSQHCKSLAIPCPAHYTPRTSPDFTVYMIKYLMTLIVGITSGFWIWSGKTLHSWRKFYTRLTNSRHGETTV

[8] = system: Mus musculus; assay: Cardioprotective activity against myocardial infarction Swiss mouse model assessed as increase in infarct area thickness in heart at 6 ug/kg/day, sc via osmotic pumps for 2 to 5 weeks by immunohistochemical staining analysis; type: functional, organism-based; details: dose 6.0 µg/kg/day, time 2-5 weeks
[9] = system: Mus musculus; assay: Cardioprotective activity against myocardial infarction Swiss mouse model assessed as increase in alpha-SMA gene expression in heart at 6 ug/kg/day, sc via osmotic pumps for 5 weeks by qPCR analysis; type: functional, organism-based; details: dose 6.0 µg/kg/day
[10] = system: Mus musculus; assay: Cardioprotective activity against myocardial infarction Swiss mouse model assessed as increase in alpha-SMA protein expression in heart at 6 ug/kg/day, sc via osmotic pumps for 5 weeks by western blot analysis; type: functional, organism-based; details: dose 6.0 µg/kg/day
[11] = system: Mus musculus; assay: Cardioprotective activity against myocardial infarction Swiss mouse model assessed as increase in myofibroblast number at 6 ug/kg/day, sc via osmotic pumps for 5 weeks by immunohistochemical staining analysis; type: functional, organism-based; details: dose 6.0 µg/kg/day
[12] = molecular target: Frizzled-1 (Homo sapiens) (UniProt Q9UP38); assay: Antagonist activity at Wnt3a-stimulaed human frizzled-1 expressed in human HEK293superTOP flash cells incubated for 24 hrs by luciferase reporter gene assay; type: functional, cell-based; details: HEK293, filed as antagonist

- inhibition [1]: Dose-Dependent Effect
- inhibition [2]: inactive
- inhibition [3]: 100%
- inhibition [4]: 100%
- inhibition [5]: 100%
- inhibition [6]: 100%
- Activity [7]: inactive
- inhibition [12]: Active
Compound: CSCC[C@H](NC(=O)CNC(=O)[C@H](CCC(=O)O)NC(=O)[C@H](CO)NC(=O)[C@@H](NC(=O)[C@H](CCCCN)NC(=O)[C@H](CC(N)=O)NC(=O)[C@H](CS)NC(C)=O)[C@@H](C)O)C(=O)N[C@@H](CC(=O)O)C(=O)NCC(=O)N[C@@H](CS)C(=O)N[C@@H](CCC(=O)O)C(=O)N[C@@H](CC(C)C)C(N)=O (Ac-CNKTSEGMDGCEL-NH2)
- Activity [8]: Active
- Activity [9]: Active
- Activity [10]: Active
- Activity [11]: Active
